Source: patent US20060167019A1, “Fungicidal mixtures based on a trizolopyrimidine derivative” (priority 2003, published 2006)

System: Plasmopara viticola
Assay: Activity against peronospora of grapevines caused by Plasmopara viticola (protective spray on potted vines)
Type: in vivo
Conditions: individual active compound, potted vines cultivar Müller-Thurgau, untreated control 84% infection
Experimental: The active compounds, separately or jointly, were prepared as a stock solution comprising 0.25% by weight of active compound in acetone or DMSO. 1% by weight of the emulsifier Uniperol® EL (wetting agent having emulsifying and dispersant action based on ethoxylated alkylphenols) was added to this solution, and the mixture was diluted with water to the desired concentration.
Leaves of potted vines of the cultivar “Müller-Thurgau” were sprayed to runoff point with an aqueous suspension having the concentration of active compound stated below. The next day, the undersides of the leaves were inoculated with an aqueous zoospore suspension of Plasmopara viticola. The grapevines were then initially placed in a water-vapor-saturated chamber at 24° C. for 48 hours and then in a greenhouse at 20-30° C. for 5 days. After this period of time, the plants were again placed in a humid chamber for 16 hours to promote sporangiophore eruption. The extent of the development of the disease on the undersides of the leaves was then determined visually.
The visually determined percentages of infected leaf areas were converted into efficacies in % of the untreated control:
The efficacy (E) is calculated as follows using Abbot's formula: E=(1−α/β)−100 α corresponds to the fungicidal infection of the treated plants in % and β corresponds to the fungicidal infection of the untreated (control) plants in %
An efficacy of 0 means that the infection level of the treated plants corresponds to that of the untreated control plants; an efficacy of 100 means that the treated plants are not infected.
The expected efficacies of mixtures of active compounds were determined using Colby's formula (Colby, S. R. “Calculating synergistic and antagonistic responses of herbicide combinations”, Weeds, 15, 20-22, 1967) and compared with the observed efficacies.
Colby's formula: E=x+y−x·y/100 • E expected efficacy, expressed in % of the untreated control, when using the mixture of the active compounds A and B at the concentrations a and b • x efficacy, expressed in % of the untreated control, when using the active compound A at the concentration a • y efficacy, expressed in % of the untreated control, when using the active compound B at the concentration b

SMILES | Efficacy in % of the untreated control (0.25 ppm in the spray liquor) | Efficacy in % of the untreated control (1 ppm in the spray liquor)
CC1CCN(c2c(-c3c(F)cccc3Cl)c(Cl)nc3ncnn23)CC1 [Comparison A] | 0% | 0%
C[C@H](Nc1c(-c2c(F)cc(F)cc2F)c(Cl)nc2ncnn12)C(F)(F)F [Comparison B] | 5% | 17%
CC1CCN(c2c(-c3c(F)cc(F)cc3F)c(Cl)nc3ncnn23)CC1 [I, 5-chloro-7-(4-methylpiperidin-1-yl)-6-(2,4,6-trifluorophenyl)-[1,2,4]triazolo[1,5-a]pyrimidine] | 0% | 17%
